Like-named read-outs stand apart in the source and are kept apart here.
Experiments:
CD-1 mouse splenocytes = assay: Splenocyte stimulation: [3H]dThd incorporation into DNA (Table 7, FIGS. 10, 11); type: cell-based; conditions: for proliferative activity life-span of normal mouse splenocytes in vitro: FIGS. 10 and 11; for stimulation of DNA synthesis ([3H] thymidine uptake) by mouse splenocytes / Incorporation of [3H]dThd into Mouse Splenocyte DNA (cpm): Table 7; for Incorporation of [3H]dThd into Mouse Splenocyte DNA (cpm): control 224 ± 28
Text: FIG. 10 show controls and the effects of different concentrations of compounds of the invention, at different time points, on the proliferation of cultured mouse splenocytes as measured by DNA synthesis through incorporation of radiolabeled thymidine into the cells' DNA.
FIG. 11 show controls and the effects of different concentrations of compounds of the invention, at different time points, on the proliferation of cultured mouse splenocytes as measured by DNA synthesis through incorporation of radiolabeled thymidine into the DNA.
Splenocytes were prepared from CD mice as a single cell suspension, and treated with red blood cell (RBC) lysis buffer (as described at http://www.ebioscience.com/ebioscience/specs/antibody—00/00-4333.htm) to remove RBCs. In a typical experiment, splenocyte stimulations by […] (PHA), panaxytriol (PXT) or Compound D were measured by using tritium-labeled thymidine, ^3H-dThd, as a tracer for DNA synthesis. DNA synthesis correlates with cell proliferation. The incubation mixture consisted of splenocyte suspension in RPMI 1640 medium (1.56×10^6 cells in 198.5 μl)+3 μg of PHA in 1 μl+ the test compound at various concentrations in 0.5 μl in dimethyl sulfoxide (DMSO), to a final concentration of 200 μl per microplate well. DMSO alone was used in place of the compound in DMSO as a control. The incubation was carried out in 5% CO2-humidified atmosphere at 37° C. for a designated time [e.g., 24 hr, 48 hr, 72 hr, 96 hr]. At the end of the incubation period, ^3H-dThd 1 μCi in 1 μl was added for an additional 6 hr incubation. The reaction was stopped by adding one volume of 20% trichloroacetic acid (TCA), homogenized at 3° C. and washed with 20% TCA. The precipitate was heat extracted (90°) with 10% TCA for 15 minutes to obtain the DNA fraction, which has the radiolabel incorporated, in the supernatant. The supernatant was added to a 7-fold volume of Liquicint for scintillation counting, which was accomplished with a Beckman LS 6000 IC spectrometer from Beckman Coulter Co. The incorporation of [^3H]dThd into DNA of splenocytes were measured as described above or previously (Chou et al. Phytotherap. Res. 3: 237-242, 1989). The results are depicted in FIGS. 11 and 12.
For the cell-counting assays, the cells were washed with RPMI 1640 medium and followed by centrifugation. The cell number was counted with a hemocytometer. Splenocyte suspensions (0.4×10^6 cells in 0.2 ml) in flat bottom 96-well plates were incubated with [^3H]dThd (1 μCi) for 24-hrs in the absence or presence of […] (PHA, 0.1 μg/0.2 ml) or panaxytriol (0.03-1 μM). Studies indicate that maximal stimulation occurred at 48 hrs or 72 hrs. The procedure in Table 7 was used to test the splenocytes used in the assays described herein to test the compounds of the invention, shown by PHA stimulation of DNA synthesis. […] Splenocytes from this culture were used in the assays in FIGS. 11 and 12 and the corresponding Examples.

[1] = test system: CCRF-CEM subline resistant to TAXOL; assay: In vitro cytotoxicity against TAXOL-resistant CCRF-CEM subline; type: cell-based, human; conditions: for IC50: Homo sapiens, CCRF-CEM; for fold of cross-resistance (CCRF-CEM/TAXOL vs parent cell line): Table 3D, given as x or -fold
Procedure: The data in Tables 2X, 3A-E, 4, 5, and 6 were obtained using the cell counting kit-8 (CCK-8) tetrazolium assay in a 96-well microplate. Five to seven concentrations of each compound in triplicate were used, and the IC50 values were determined by CompuSyn software automation (Chou T C. and Martin N. ComboSyn, Inc., 2006) based on the median-effect equation and plot (Chou T C. J. Theor. Biol. 59:235-276, 1976; Chou T C. Pharmacol. Rev. 58: 621-681, 2006). […] The r value defines the correlation coefficient of the median-effect plot which signifies the conformity to the mass-action law principle (Chou T C. J. Theor. Biol. 59:235-276, 1976; Chou T C. Pharmacol. Rev. 58:621-681, 2006). These parameters were determined by CompuSyn simulation (available at http://www.combosyn.com).
Absorbance was measured by Powerwave XS microplate spectrophotometer.

[2] = test system: CCRF-CEM/VBL100 vinblastine-resistant cells; assay: In vitro cytotoxicity against vinblastine-resistant CCRF-CEM subline; type: cell-based, human; conditions: for IC50: Homo sapiens, CCRF-CEM, 72 h; for fold of cross-resistance (CCRF-CEM/Vinblastine vs parent cell line): Table 3D, given as x or -fold
[3] = test system: CCRF-CEM human T-cell acute lymphoblastic leukemia cells; assay: In vitro cytotoxicity against CCRF-CEM (XTT / CCK-8 tetrazolium assay, 72 hr); conditions: for IC50: Homo sapiens
[4] = 72 h, read-out: IC50 CCRF-CEM/TAXOL
[5] = read-out: IC50 CCRF-CEM/Vinblastine
[6] = CCRF-CEM, 72 h, read-out: CCRF-CEM (IC50 in μM), Table 3A-2, CCK-8, 72-hr exposure
[7] = CCRF-CEM, 72 h, read-out: IC50 CCRF-CEM, Table 3D, CCK-8, 72-hr incubation

## C=C[C@H](O)C#CC#CC[C@H]1OC(C)(C)O[C@@H]1CCCCCCC [Compound (D)]
CD-1 mouse splenocytes
  proliferative activity life-span of normal mouse splenocytes in vitro: prolonged
[1]; [4]
  IC50: 1.03 µM
[1]; Table 3A-2, CCK-8, 72-hr exposure, read-out: CCRF-CEM/TAXOL (IC50 in μM)
  IC50: 1.02 µM
[1]; Table 3A-2
  Fold of resistance (IC50 ratio CCRF-CEM/TAXOL vs CCRF-CEM): 0.90 fold
[1]
  fold of cross-resistance (CCRF-CEM/TAXOL vs parent cell line): 2.17 fold
[2]; Table 3A-2, CCK-8, 72-hr exposure, read-out: CCRF-CEM/VBL (IC50 in μM)
  IC50: 2.55 µM
[2]; [5]
  IC50: 0.947 µM
[2]; TAXOL- or vinblastine-resistant (MDR) sublines
  cross-resistance to TAXOL or vinblastine: do not appear to be cross-resistant to TAXOL or vinblastine
[2]; Table 3A-2
  Fold of resistance (IC50 ratio CCRF-CEM/VBL vs CCRF-CEM): 2.24 fold
[2]; Table 3A, CCRF-CEM/VBL
  analog is fold more potent (than Compound (A)): (analog is 1.19-fold
[2]
  fold of cross-resistance (CCRF-CEM/Vinblastine vs parent cell line): 1.98 fold
[3]
  anti-cancer activity in the in vitro cytotoxicity assay: active against cancer
[3]; [6]
  IC50: 1.14 µM
[3]; [7]
  IC50: 0.478 µM
[3]; CCRF-CEM, read-out: IC50 (in μM), cytotoxic potency against cancer cell line growth in vitro, Table 3C, cell line not given
  IC50: 0.48 µM
[3]; Table 3A
  potency relative to Compound (A) in vitro: about 1.44 fold
[3]; Table 3A, CCRF-CEM
  analog is fold more potent (than Compound (A)): is 1.68-fold

## C=C[C@@H](O)C#CC#CC[C@@H](O)[C@H](O)CCCCCCC [panaxytriol]
CD-1 mouse splenocytes
  proliferative activity life-span of normal mouse splenocytes in vitro: prolonged
  stimulation of DNA synthesis ([3H] thymidine uptake) by mouse splenocytes: induced stimulation of DNA synthesis
CD-1 mouse splenocytes; 0.03 μM
  Incorporation of [3H]dThd into Mouse Splenocyte DNA (cpm): 227 ± 8.3 cpm
CD-1 mouse splenocytes; 0.1 μM
  Incorporation of [3H]dThd into Mouse Splenocyte DNA (cpm): 251 ± 18 cpm
CD-1 mouse splenocytes; 0.3 μM
  Incorporation of [3H]dThd into Mouse Splenocyte DNA (cpm): 290 ± 20 cpm
CD-1 mouse splenocytes; 1.0 μM
  Incorporation of [3H]dThd into Mouse Splenocyte DNA (cpm): 296 ± 9 cpm
CD-1 mouse splenocytes; listed as Panaxytriol
  stimulation of DNA synthesis ([3H] thymidine uptake) by mouse splenocytes: enhance [^3H] thymidine uptake into splenic cells in a dose-dependent manner
[1]; 72 h, read-out: CCRF-CEM/TAXOL (IC50 in μM)
  IC50: 3.09 µM
[1]; [4]
  IC50: 5.22 µM
[1]; Table 3A-2
  Fold of resistance (IC50 ratio CCRF-CEM/TAXOL vs CCRF-CEM): 0.84 fold
[1]
  fold of cross-resistance (CCRF-CEM/TAXOL vs parent cell line): 1.04 fold
[2]; read-out: CCRF-CEM/VBL (IC50 in μM)
  IC50: 4.43 µM
[2]; read-out: IC50 CCRF ± CEM/VBL
  IC50: 14.6 ± 6.92 µM
[2]; [5]
  IC50: 6.39 µM
[2]; Table 3
  fold resistance in brackets (IC50 CCRF-CEM/VBL vs CCRF-CEM): 1.20 x
[2]; Table 3A-2
  Fold of resistance (IC50 ratio CCRF-CEM/VBL vs CCRF-CEM): 1.20 fold
[2]
  fold of cross-resistance (CCRF-CEM/Vinblastine vs parent cell line): 1.27 fold
[3]; [6]
  IC50: 3.68 µM
[3]; CCRF-CEM, 72 h, read-out: IC50 CCRF-CEM, Table 3, XTT, 72-hour
  IC50: 12.1 ± 1.57 µM
[3]; [7]
  IC50: 5.04 ± 0.86 µM

— patent US8859615B2, “Compounds, compositions and methods for reducing toxicity and treating or preventing diseases” (priority 2008, dated 2014)
